Values joined by “and” are separate entries in the source; they are usually repeats but may differ in a detail not shown here. Equal values may be shown once.
How the values were obtained:
[1] = system: Zucker fatty (fa/fa) rats; experiment: Systolic blood pressure (tail cuff) in 9 month Zucker rat study; type: in vivo; settings: Zucker fatty rats
Experimental: (§1) A second study was performed in Zucker rats over a period of 9 months to investigate the longitudinal effects of the drug on systolic blood pressure and various indices of renal function, two of which are exemplified here. In one arm of the study, the drug was given in the diet (50 μmole/kg of diet) from aged 6-7 weeks in Zucker fatty (fa/fa) rats, whilst in a second arm of the study, drug treatment as above was delayed until proteinuria had become established after 4 months, indicative of structural damage already present in the kidneys. A third group of Zucker fatty rats and a further group of lean rats were given diet alone throughout the period of study.
(§2) After dosing with the test compound, at monthly intervals measurements were made of systolic blood pressure, urinary total protein and urinary N-acetyl β-D-glucosaminidase (NAG) activity.
Rats were enclosed in custom-built restrainers and placed on a shelf in a warming cabinet, whose temperature was controlled at approximately 30° C. An inflatable cuff with integral pulse sensor was attached to the tail of each rat. After warming for 20-30 min the tail cuff was inflated and deflated automatically and a measurement of systolic blood pressure made using an IITC Non-Invasive Blood Pressure Monitor. This cycle was repeated several times for each rat until stable values of blood pressure were obtained.
(§3) In the tables below, results are given as mean values for the group ±the standard error of the mean. Results have been analysed by one way ANOVA and significant differences from the Zucker fatty rat control group have been indicated by an asterisk.

[2] = system: Zucker fatty (fa/fa) rats; experiment: Urinary N-acetyl β-D-glucosaminidase (NAG) activity in 9 month Zucker rat study; type: in vivo; settings: for URINARY N-ACETYL-β-D-GLUCOSAMINIDASE ACTIVITY: mean ± SEM
Experimental: as §1, §2
Twenty-four hour urine collections, made in metabolism cages, were aliquoted and frozen at −70° C. until required for assay.
NAG activity was assayed using a reagent kit on a Hitachi 717 analyser (both suppied by Boehringer Mannheim UK, Lewes). Enzyme activity was measured by monitoring the rate of chlorophenol (570 nm) released from the substrate chlorophenol red-β-D-glucosaminide.
as §3

obese Zucker fa/fa rats = experiment: Renal histopathology after 3 months dietary administration in obese Zucker fa/fa rats; type: in vivo, rat; set-up: key to Hydronephrosis (histopathological severity, kidney) / Chronic Nephropathy (histopathological severity, kidney): 0: None seen; ±: Minimal; +: Mild; + +: Moderate; + + +: Marked
Experimental: Obese Zucker rats are known to develop chronic nephropathy in addition to hyperlipidaemia, hyperinsulinaemia and peripheral insulin resistance (Kasiske et al 1985).
5-[4- [2-(N-methyl-N-(2-pyridyl)amino)ethoxy]benzyl]thiazolidine-2,4-dione (herein after referred to as ‘test compound’) was administered to 2-3 month old obese Zucker fa/fa rats by dietary administration to provide a daily dose over a period of 3 months ranging from 2.0-7.0 μmole/kg body weight. A group of age-matched obese Zucker fa/fa rats were given the same diet without the addition of the test compound, as was a group of lean Fa/? rats. At the end of the study, all of the control Zucker fa/fa rats had chronic nephropathy which involved dilated tubules, atrophied or hyperplastic tubular epithelial cells, thickened tubular basement membranes, segmented glomeruli or global glomerulosclerosis.
In the corresponding lean animals, 3/15 animals, a minimal degree of chronic nephropathy was seen.
Characteristically this involved dilation of the kidney pelvis.

[3] = individual obese Zucker fa/fa rats, test compound in diet 2.0-7.0 μmole/kg body weight daily, 3 months

CN(CCOc1ccc(CC2SC(=O)NC2=O)cc1)c1ccccn1 (centres unmarked) [Test Compound, 5-[4-[2-(N-methyl-N-(2-pyridyl)amino)ethoxy]benzyl]thiazolidine-2,4-dione]
SYSTOLIC BLOOD PRESSURE ([1]; 50 μmol/kg of diet started once renal complications established (after 4 months), treatment duration 2 months, mean ± SEM): 134 ± 3 mm Hg
SYSTOLIC BLOOD PRESSURE ([1]; 50 μmol/kg of diet started once renal complications established (after 4 months), treatment duration 3 months, mean ± SEM): 144 ± 3 mm Hg
SYSTOLIC BLOOD PRESSURE ([1]; 50 μmol/kg of diet started once renal complications established (after 4 months), treatment duration 4 months, mean ± SEM): 139 ± 3 mm Hg
SYSTOLIC BLOOD PRESSURE ([1]; 50 μmol/kg of diet started once renal complications established (after 4 months), treatment duration 5 months, mean ± SEM): 146 ± 6 mm Hg
SYSTOLIC BLOOD PRESSURE ([1]; 50 μmol/kg of diet started once renal complications established (after 4 months), treatment duration −1 month (before start of drug), mean ± SEM): 141 ± 6 mm Hg
SYSTOLIC BLOOD PRESSURE ([1]; 50 μmol/kg of diet started once renal complications established (after 4 months), treatment duration −2 months (before start of drug), mean ± SEM): 138 ± 7 mm Hg
SYSTOLIC BLOOD PRESSURE ([1]; 50 μmol/kg of diet started once renal complications established (after 4 months), treatment duration −3 months (before start of drug), mean ± SEM): 123 ± 5 mm Hg
SYSTOLIC BLOOD PRESSURE ([1]; 50 μmol/kg of diet started once renal complications established (after 4 months), treatment duration −4 months (before start of drug), mean ± SEM): 106 ± 3 mm Hg
SYSTOLIC BLOOD PRESSURE ([1]; drug treatment commenced after proteinuria had become established): prevented from rising further
elevation of urinary NAG activity ([2]; Zucker fatty (fa/fa) rats treated from age 6-7 weeks for 9 months via the diet): markedly reduced
URINARY N-ACETYL-β-D-GLUCOSAMINIDASE ACTIVITY ([2]; Zucker fatty rats, 50 μmol/kg of diet from age 6-7 weeks (prior to renal complications), treatment duration 0 months): 5.7 ± 0.4 mU/hour
URINARY N-ACETYL-β-D-GLUCOSAMINIDASE ACTIVITY ([2]; Zucker fatty rats, 50 μmol/kg of diet from age 6-7 weeks (prior to renal complications), treatment duration 1 month): 7.5 ± 0.7 mU/hour
URINARY N-ACETYL-β-D-GLUCOSAMINIDASE ACTIVITY ([2]; Zucker fatty rats, 50 μmol/kg of diet from age 6-7 weeks (prior to renal complications), treatment duration 2 months): 3.8 ± 1.1 mU/hour
URINARY N-ACETYL-β-D-GLUCOSAMINIDASE ACTIVITY ([2]; Zucker fatty rats, 50 μmol/kg of diet from age 6-7 weeks (prior to renal complications), treatment duration 3 months): 4.5 ± 0.9 mU/hour
URINARY N-ACETYL-β-D-GLUCOSAMINIDASE ACTIVITY ([2]; Zucker fatty rats, 50 μmol/kg of diet from age 6-7 weeks (prior to renal complications), treatment duration 4 months): 5.1 ± 1.2 mU/hour
URINARY N-ACETYL-β-D-GLUCOSAMINIDASE ACTIVITY ([2]; Zucker fatty rats, 50 μmol/kg of diet from age 6-7 weeks (prior to renal complications), treatment duration 5 months): 6.5 ± 0.7 mU/hour
URINARY N-ACETYL-β-D-GLUCOSAMINIDASE ACTIVITY ([2]; Zucker fatty rats, 50 μmol/kg of diet from age 6-7 weeks (prior to renal complications), treatment duration 6 months): 6.5 ± 1.1 mU/hour
URINARY N-ACETYL-β-D-GLUCOSAMINIDASE ACTIVITY ([2]; Zucker fatty rats, 50 μmol/kg of diet from age 6-7 weeks (prior to renal complications), treatment duration 7 months): 8.9 ± 0.8 mU/hour
URINARY N-ACETYL-β-D-GLUCOSAMINIDASE ACTIVITY ([2]; Zucker fatty rats, 50 μmol/kg of diet from age 6-7 weeks (prior to renal complications), treatment duration 8 months): 6.2 ± 1.2 mU/hour
URINARY N-ACETYL-β-D-GLUCOSAMINIDASE ACTIVITY ([2]; Zucker fatty rats, 50 μmol/kg of diet from age 6-7 weeks (prior to renal complications), treatment duration 9 months): 9.1 ± 1.2 mU/hour
URINARY N-ACETYL-β-D-GLUCOSAMINIDASE ACTIVITY ([2]; Zucker fatty rats, 50 μmol/kg of diet started once renal complications established (after 4 months), treatment duration 0 months): 7.6 ± 0.7 mU/hour
URINARY N-ACETYL-β-D-GLUCOSAMINIDASE ACTIVITY ([2]; Zucker fatty rats, 50 μmol/kg of diet started once renal complications established (after 4 months), treatment duration 1 month): 7.6 ± 0.7 mU/hour
URINARY N-ACETYL-β-D-GLUCOSAMINIDASE ACTIVITY ([2]; Zucker fatty rats, 50 μmol/kg of diet started once renal complications established (after 4 months), treatment duration 2 months): 5.7 ± 0.9 mU/hour
URINARY N-ACETYL-β-D-GLUCOSAMINIDASE ACTIVITY ([2]; Zucker fatty rats, 50 μmol/kg of diet started once renal complications established (after 4 months), treatment duration 3 months): 7.4 ± 0.9 mU/hour
URINARY N-ACETYL-β-D-GLUCOSAMINIDASE ACTIVITY ([2]; Zucker fatty rats, 50 μmol/kg of diet started once renal complications established (after 4 months), treatment duration 4 months): 5.4 ± 1.0 mU/hour
URINARY N-ACETYL-β-D-GLUCOSAMINIDASE ACTIVITY ([2]; Zucker fatty rats, 50 μmol/kg of diet started once renal complications established (after 4 months), treatment duration 5 months): 8.0 ± 1.1 mU/hour
URINARY N-ACETYL-β-D-GLUCOSAMINIDASE ACTIVITY ([2]; Zucker fatty rats, 50 μmol/kg of diet started once renal complications established (after 4 months), treatment duration −1 month (before start of drug)): 7.8 ± 0.6 mU/hour
URINARY N-ACETYL-β-D-GLUCOSAMINIDASE ACTIVITY ([2]; Zucker fatty rats, 50 μmol/kg of diet started once renal complications established (after 4 months), treatment duration −2 months (before start of drug)): 9.5 ± 1.1 mU/hour
URINARY N-ACETYL-β-D-GLUCOSAMINIDASE ACTIVITY ([2]; Zucker fatty rats, 50 μmol/kg of diet started once renal complications established (after 4 months), treatment duration −3 months (before start of drug)): 8.3 ± 0.5 mU/hour
URINARY N-ACETYL-β-D-GLUCOSAMINIDASE ACTIVITY ([2]; Zucker fatty rats, 50 μmol/kg of diet started once renal complications established (after 4 months), treatment duration −4 months (before start of drug)): 5.4 ± 0.2 mU/hour
urinary NAG activity ([2]; Zucker fatty rats, drug treatment commenced after proteinuria had become established): prevented from rising further
Chronic Nephropathy (histopathological severity, kidney) (obese Zucker fa/fa rats; [3]): + and ± (8×) and 0 and + +
Hydronephrosis (histopathological severity, kidney) (obese Zucker fa/fa rats; [3]): 0
incidence and degree of chronic nephropathy (obese Zucker fa/fa rats; obese Zucker fa/fa rats, 3 months in diet, compared to control Zucker fa/fa rats): reduction in the incidence and degree of chronic nephropathy
hydronephrosis (obese Zucker fa/fa rats; obese Zucker fa/fa rats, 3 months in diet, control 4/9 mild-moderate): No hydronephrosis was seen

Source: US20020115699A1, “Method for treating renal disease” (SmithKline Beecham p.l.c., priority 1994, published 2002)
